We go through 30 compounds from patent publication US9630922B2, “3-spiro-7-hydroxamic acid tetralins as HDAC inhibitors” (Forma Therapeutics, Inc., priority 2015, dated 2017).

Each structure is given as a SMILES string.

This assay addresses T1, HDAC6 (Homo sapiens, UniProt Q9UBN7).
T1 construct: Full length human recombinant HDAC6 protein was expressed in baculoviral system; made in house; host or cells: baculoviral system
T1 sequence (Q9UBN7 1-1215): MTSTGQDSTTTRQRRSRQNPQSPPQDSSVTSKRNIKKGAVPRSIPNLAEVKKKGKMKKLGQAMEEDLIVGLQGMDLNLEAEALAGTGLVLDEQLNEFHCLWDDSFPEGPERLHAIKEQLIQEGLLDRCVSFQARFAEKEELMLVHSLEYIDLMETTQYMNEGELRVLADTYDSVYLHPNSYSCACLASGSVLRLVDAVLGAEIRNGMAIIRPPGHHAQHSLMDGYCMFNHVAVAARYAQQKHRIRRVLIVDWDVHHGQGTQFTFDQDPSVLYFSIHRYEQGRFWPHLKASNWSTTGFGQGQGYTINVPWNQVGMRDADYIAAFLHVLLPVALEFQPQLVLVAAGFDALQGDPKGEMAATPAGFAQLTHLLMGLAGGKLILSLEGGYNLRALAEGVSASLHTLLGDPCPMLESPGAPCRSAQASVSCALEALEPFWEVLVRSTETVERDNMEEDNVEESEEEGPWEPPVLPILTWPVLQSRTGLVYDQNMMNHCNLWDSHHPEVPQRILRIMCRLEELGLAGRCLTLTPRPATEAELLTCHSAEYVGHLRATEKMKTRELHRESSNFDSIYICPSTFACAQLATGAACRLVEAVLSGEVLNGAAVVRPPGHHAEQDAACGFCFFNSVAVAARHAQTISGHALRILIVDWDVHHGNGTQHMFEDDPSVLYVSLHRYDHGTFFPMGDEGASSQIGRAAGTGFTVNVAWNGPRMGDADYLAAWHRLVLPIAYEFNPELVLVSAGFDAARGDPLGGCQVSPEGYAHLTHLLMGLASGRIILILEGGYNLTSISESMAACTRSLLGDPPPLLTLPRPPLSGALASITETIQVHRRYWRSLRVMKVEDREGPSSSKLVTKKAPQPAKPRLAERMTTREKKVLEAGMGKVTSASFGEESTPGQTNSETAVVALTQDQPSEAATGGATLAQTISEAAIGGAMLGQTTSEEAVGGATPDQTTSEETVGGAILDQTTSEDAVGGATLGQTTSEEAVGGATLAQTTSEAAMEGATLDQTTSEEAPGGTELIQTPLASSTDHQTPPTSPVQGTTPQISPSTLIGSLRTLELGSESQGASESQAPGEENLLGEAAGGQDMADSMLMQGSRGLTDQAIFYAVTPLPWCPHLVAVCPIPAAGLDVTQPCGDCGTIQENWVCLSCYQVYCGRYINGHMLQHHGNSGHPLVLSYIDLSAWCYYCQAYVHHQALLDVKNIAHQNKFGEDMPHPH
The experiment in a line: In vitro Histone Deacetylase Assay (enzymatic HDAC6 electrophoretic mobility shift assay). It counts as biochemical. Conditions: full length human recombinant HDAC6, 1 nM enzyme, 2 μM peptide substrate RHKK(Ac)-NH2, 25° C.; read-out: HDAC6 activity range. The procedure, abridged: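 Full-length recombinant human HDAC6 (baculovirus-expressed, 1 nM) was incubated at 25 °C with 2 μM fluorescent RHKK(Ac)-NH2 peptide in HEPES pH 7.5, KCl, BSA, Triton X-100 and 1% DMSO, then SDS-quenched. Substrate and product were separated by microfluidic mobility shift, and IC50 came from 4-parameter fits of 12-point, 3-fold dilution curves.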
(A gel shift assay detects complexes by their altered migration in electrophoresis.)
On to `Cc1ccncc1N1CC[C@@]2(CCc3cc(C(=O)NO)ccc3C2)C1=O` [Compound I-137, (S)-N-hydroxy-1′-(4-methylpyridin-3-yl)-2′-oxo-3,4-dihydro-1H-spiro[naphthalene-2,3′-pyrrolidine]-6-carboxamide], for which the IC50 was not above 100 nM.

Consider `O=C(NO)c1ccc2c(c1)CC[C@@]1(CCN(c3ccc(F)c(F)c3)C1=O)C2` [Compound I-155, (S)-1′-(3,4-difluorophenyl)-N-hydroxy-2′-oxo-3,4-dihydro-1H-spiro[naphthalene-2,3′-pyrrolidine]-6-carboxamide], for which the IC50 is not above 100 nM.

Turning to `O=C(NO)c1ccc2c(c1)CC[C@]1(CCN(c3cccc4ccccc34)C1=O)C2` [Compound I-89, (R)-N-hydroxy-1′-(naphthalen-1-yl)-2′-oxo-3,4-dihydro-1H-spiro[naphthalene-2,3′-pyrrolidine]-6-carboxamide], the IC50 was not above 100 nM. As for `O=C(NO)c1ccc2c(c1)CCC1(CC(=O)N(c3ccccc3)C1)C2` (single isomer, unassigned) [Compound I-204], the figure is not above 100 nM; as for `CCN1CC[C@]2(CCc3cc(C(=O)NO)ccc3C2)C1=O` [Compound I-161, (R)-1′-ethyl-N-hydroxy-2′-oxo-3,4-dihydro-1H-spiro[naphthalene-2,3′-pyrrolidine]-6-carboxamide], not above 100 nM. The figure for `O=C(NO)c1ccc2c(c1)CC[C@]1(CCN(Cc3ccncc3)C1=O)C2` [Compound I-14, (R)-N-hydroxy-2′-oxo-1′-(pyridin-4-ylmethyl)-3,4-dihydro-1H-spiro[naphthalene-2,3′-pyrrolidine]-6-carboxamide] is more than 500 nM; for `O=C(NO)c1ccc2c(c1)CCC1(CCN(Cc3nc4ccccc4[nH]3)C1)C2` (stereo not drawn) [Compound I-1, 1′-((1H-benzo[d]imidazol-2-yl)methyl)-N-hydroxy-3,4-dihydro-1H-spiro[naphthalene-2,3′-pyrrolidine]-6-carboxamide] it is not above 100 nM; for `O=C(NO)c1ccc2c(c1)CC[C@@]1(CCN(c3ccccc3)C1=O)C2` [Compound I-29, (S)-N-hydroxy-2′-oxo-1′-phenyl-3,4-dihydro-1H-spiro[naphthalene-2,3′-pyrrolidine]-6-carboxamide] it is not above 100 nM.

For `O=C(NO)c1ccc2c(c1)CCC1(CC(=O)N(c3ccc(F)cc3)C1)C2` (single isomer, unassigned) [Compound I-227], the IC50 was not above 100 nM. `O=C(NO)c1ccc2c(c1)CCC1(CCN(C3CCCCC3)CC1)O2` [II-8, 1′-cyclohexyl-N-hydroxyspiro[chromane-2,4′-piperidine]-6-carboxamide]: the IC50 is more than 500 nM. As for `O=C(NO)c1ccc2c(c1)CC[C@@]1(CCN(C3CCCC3)C1=O)C2` [Compound I-164, (S)-1′-cyclopentyl-N-hydroxy-2′-oxo-3,4-dihydro-1H-spiro[naphthalene-2,3′-pyrrolidine]-6-carboxamide], the figure is 100 to 500 nM; as for `O=C(NO)c1ccc2c(c1)CC[C@@]1(CCNC1=O)C2` [Compound I-28, (S)-N-hydroxy-2′-oxo-3,4-dihydro-1H-spiro[naphthalene-2,3′-pyrrolidine]-6-carboxamide], not above 100 nM; as for `O=C(NO)c1ccc2c(c1)CC[C@]1(CCN(c3ccc(F)cc3)C1=O)C2` [Compound I-120, (R)-1′-(4-fluorophenyl)-N-hydroxy-2′-oxo-3,4-dihydro-1H-spiro[naphthalene-2,3′-pyrrolidine]-6-carboxamide], not above 100 nM. The figure for `CC(C)N1CCCC2(CCc3cc(C(=O)NO)ccc3C2)C1=O` (single isomer, unassigned) [Compound I-192] is not above 100 nM.

As for `CN1CCCC2(CCc3cc(C(=O)NO)ccc3C2)C1=O` (stereo not drawn) [Compound I-178, N-hydroxy-1′-methyl-2′-oxo-3,4-dihydro-1H-spiro[naphthalene-2,3′-piperidine]-6-carboxamide], the IC50 was not above 100 nM. On to `CC(C)CN1CC2(CCc3cc(C(=O)NO)ccc3C2)CC1=O` (single isomer, unassigned) [Compound I-212], for which the IC50 is not above 100 nM. As for `Cc1ccccc1CN1CC2(CCc3cc(C(=O)NO)ccc3C2)CC1=O` (single isomer, unassigned) [Compound I-225], the figure is not above 100 nM; as for `O=C(NO)c1ccc2c(c1)CC[C@]1(CCN(c3ccccc3)C1=O)C2` [Compound I-26, (R)-N-hydroxy-2′-oxo-1′-phenyl-3,4-dihydro-1H-spiro[naphthalene-2,3′-pyrrolidine]-6-carboxamide], not above 100 nM; as for `COc1ccc(N2CC[C@]3(CCc4cc(C(=O)NO)ccc4C3)C2=O)cc1` [Compound I-124, (R)-N-hydroxy-1′-(4-methoxyphenyl)-2′-oxo-3,4-dihydro-1H-spiro[naphthalene-2,3′-pyrrolidine]-6-carboxamide], not above 100 nM. As for `COc1ccc(C(=O)N2CCC3(CCc4cc(C(=O)NO)ccc4O3)CC2)cc1` [II-4, N-hydroxy-1′-(4-methoxybenzoyl)spiro[chromane-2,4′-piperidine]-6-carboxamide], the figure is more than 500 nM; as for `COc1cccc(N2CC[C@]3(CCc4cc(C(=O)NO)ccc4C3)C2=O)c1F` [Compound I-125, (2R)-1′-(2-fluoro-3-methoxyphenyl)-N-hydroxy-2′-oxo-3,4-dihydro-1H-spiro[naphthalene-2,3′-pyrrolidine]-6-carboxamide], not above 100 nM. The figure for `O=C(NO)c1ccc2c(c1)CCC1(CC(=O)N(CC3CCC3)C1)C2` (single isomer, unassigned) [Compound I-210] is not above 100 nM; for `O=C(NO)c1ccc2c(c1)CC[C@@]1(CCN(CC(F)(F)F)C1=O)C2` [Compound I-166, (S)-N-hydroxy-2′-oxo-1′-(2,2,2-trifluoroethyl)-3,4-dihydro-1H-spiro[naphthalene-2,3′-pyrrolidine]-6-carboxamide] it is 100 to 500 nM; for `CC#CCN1CC[C@]2(CCc3cc(C(=O)NO)ccc3C2)C1=O` [Compound I-35, (R)-1′-(but-2-yn-1-yl)-N-hydroxy-2′-oxo-3,4-dihydro-1H-spiro[naphthalene-2,3′-pyrrolidine]-6-carboxamide] it is not above 100 nM. For `COc1cc(N2CC[C@@]3(CCc4cc(C(=O)NO)ccc4C3)C2=O)ccc1F` [Compound I-129, (2S)-1′-(4-fluoro-3-methoxyphenyl)-N-hydroxy-2′-oxo-3,4-dihydro-1H-spiro[naphthalene-2,3′-pyrrolidine]-6-carboxamide], the IC50 is not above 100 nM. The figure for `O=C(NO)c1ccc2c(c1)CCC1(CCN(C(=O)Nc3ccccc3)CC1)O2` [II-7, N6-hydroxy-N1′-phenylspiro[chromane-2,4′-piperidine]-1′,6-dicarboxamide] is 100 to 500 nM; for `CN(C)c1ccc(N2CC[C@]3(CCc4cc(C(=O)NO)ccc4C3)C2=O)cn1` [Compound I-151, (2R)-1′-[6-(dimethylamino)pyridin-3-yl]-N-hydroxy-2′-oxo-3,4-dihydro-1H-spiro[naphthalene-2,3′-pyrrolidine]-6-carboxamide] it is not above 100 nM; for `O=C(NO)c1ccc2c(c1)CCC1(CCN(Cc3ccccc3)C1=O)O2` (stereo not drawn) [Compound I-232, 1′-benzyl-N-hydroxy-2′-oxospiro[chromane-2,3′-pyrrolidine]-6-carboxamide] it is 100 to 500 nM. The figure for `O=C(NO)c1ccc2c(c1)CCC1(CCN(c3ccccc3)C1=O)S2(=O)=O` (stereo not drawn) [Compound I-238, N-hydroxy-2-oxo-1-phenylspiro[pyrrolidine-3,2′-thiochromane]-6′-carboxamide 1′,1′-dioxide] is 100 to 500 nM. Turning to `COc1cccc(CN2CC[C@@]3(CCc4cc(C(=O)NO)ccc4C3)C2=O)c1` [Compound I-77, (S)-N-hydroxy-1′-(3-methoxybenzyl)-2′-oxo-3,4-dihydro-1H-spiro[naphthalene-2,3′-pyrrolidine]-6-carboxamide], the IC50 was not above 100 nM.
